test system: HIV; assay: MT4 assay: antiviral HIV activity (cell protection, cell titer glo readout at 96 hours); format: cell-based; conditions: Human immunodeficiency virus 1, MT4, 96 h, MT4 cells, cell titer glo readout at 96 hours, 10 point dose response; read-out: HIV MT4 Assay IC50
How it was run: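 MT-4 cells infected with HIV, with inhibition readout by CellTiter-Glo luminescence at 96 h relative to no-compound control. Cytotoxicity measured in parallel under the same conditions. IC50 from a 10-point, 3-4-fold dilution series spanning >1000-fold, fitted with a four-parameter logistic equation.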

Structure (SMILES) | IC50
COC[C@H]1CCCN1Cc1cc2c(-c3cc(F)c4c(c3C)CCCO4)c([C@H](OC(C)(C)C)C(=O)O)c(C)nc2n1C [Example 290] | 48.1 nM
Cc1nc2c(cc(CN3CCc4ccc(N5CCCCC5)cc4C3)n2C)c(-c2cc(F)c3c(c2C)CCCO3)c1[C@H](OC(C)(C)C)C(=O)O [Example 291] | 44.4 nM
Cc1nc2c(cc(CN3CCC[C@H]3C(=O)Nc3ccc4c(cnn4C)c3)n2C)c(-c2cc(F)c3c(c2C)CCCO3)c1[C@H](OC(C)(C)C)C(=O)O [Example 292] | 41.3 nM
Cc1nc2c(cc(CN3CC[C@@H](NC(=O)c4ccc5c(cnn5C)c4)C3)n2C)c(-c2cc(F)c3c(c2C)CCCO3)c1[C@H](OC(C)(C)C)C(=O)O [Example 293] | 44.3 nM
Cc1nc2c(cc(CN3CCC[C@H](NC(=O)c4ccc5c(cnn5C)c4)C3)n2C)c(-c2cc(F)c3c(c2C)CCCO3)c1[C@H](OC(C)(C)C)C(=O)O [Example 294] | 38.6 nM
Cc1nc2c(cc(CN3CCC[C@@H]3CO)n2C)c(-c2cc(F)c3c(c2C)CCCO3)c1[C@H](OC(C)(C)C)C(=O)O [Example 295] | 51.2 nM
Cc1nc2c(cc(CN(C)C(=O)c3ccc4c(cnn4C)c3)n2C)c(-c2cc(F)c3c(c2C)CCCO3)c1[C@H](OC(C)(C)C)C(=O)O [Example 296] | 28.5 nM
Cc1nc2c(cc(CCC(=O)Nc3ccc4c(cnn4C)c3)n2C)c(-c2cc(F)c3c(c2C)CCCO3)c1[C@H](OC(C)(C)C)C(=O)O [Example 298] | 258 nM
Cc1nc2c(cc(CCC(=O)N(C)c3ccc4c(cnn4C)c3)n2C)c(-c2cc(F)c3c(c2C)CCCO3)c1[C@H](OC(C)(C)C)C(=O)O [Example 299] | 39.3 nM
COC1CCN(c2nnc(-c3cc4c(-c5cc(F)c6c(c5C)CCCO6)c([C@H](OC(C)(C)C)C(=O)O)c(C)nc4n3C)o2)CC1 [Example 303] | 3.9 nM
Cc1nc2c(cc(-c3nnc(NCC4CCOCC4)o3)n2C)c(-c2cc(F)c3c(c2C)CCCO3)c1[C@H](OC(C)(C)C)C(=O)O [Example 304] | 40.9 nM
Cc1nc2c(cc(-c3nnc(N(C)CCN4CCCC4)o3)n2C)c(-c2cc(F)c3c(c2C)CCCO3)c1[C@H](OC(C)(C)C)C(=O)O [Example 305] | 44.9 nM
COCCN(C)c1nnc(-c2cc3c(-c4cc(F)c5c(c4C)CCCO5)c([C@H](OC(C)(C)C)C(=O)O)c(C)nc3n2C)o1 [Example 307] | 12.3 nM
Cc1nc2c(cc(-c3nnc(N(C)C)o3)n2C)c(-c2cc(F)c3c(c2C)CCCO3)c1[C@H](OC(C)(C)C)C(=O)O [Example 308] | 14 nM
Cc1nc2c(cc(-c3nnc(CN4CCCCC4)o3)n2C)c(-c2cc(F)c3c(c2C)CCCO3)c1[C@H](OC(C)(C)C)C(=O)O [Example 313] | 8.4 nM
Cc1nc2c(cc(-c3nnc(N4CCC(F)(F)CC4)o3)n2C)c(-c2cc(F)c3c(c2C)CCCO3)c1[C@H](OC(C)(C)C)C(=O)O [Example 314] | 7.6 nM
Cc1nc2c(cc(-c3nnc(N4CCS(=O)(=O)CC4)o3)n2C)c(-c2cc(F)c3c(c2C)CCCO3)c1[C@H](OC(C)(C)C)C(=O)O [Example 316] | 566 nM
Cc1nc2c(cc(-c3nnc(N4CCN(S(=O)(=O)N5CCCCC5)CC4)o3)n2C)c(-c2cc(F)c3c(c2C)CCCO3)c1[C@H](OC(C)(C)C)C(=O)O [Example 319] | 4.9 nM
Cc1nc2c(cc(-c3nnc(N4CCC(N5CCS(=O)(=O)CC5)CC4)o3)n2C)c(-c2cc(F)c3c(c2C)CCCO3)c1[C@H](OC(C)(C)C)C(=O)O [Example 320] | 380 nM
Cc1nc2c(cc(-c3nnc(N4CCC5(CCCCC5)CC4)o3)n2C)c(-c2cc(F)c3c(c2C)CCCO3)c1[C@H](OC(C)(C)C)C(=O)O [Example 321] | 13.5 nM
Cc1nc2c(cc(-c3nnc(N4CCC(OC(C)C)CC4)o3)n2C)c(-c2cc(F)c3c(c2C)CCCO3)c1[C@H](OC(C)(C)C)C(=O)O [Example 323] | 5.2 nM
Cc1nc2c(cc(-c3nnc(N4CCC[C@@H]4C)o3)n2C)c(-c2cc(F)c3c(c2C)CCCO3)c1[C@H](OC(C)(C)C)C(=O)O [Example 324] | 4 nM
Cc1nc2c(cc(-c3nnc(N4CCC(n5cccn5)CC4)o3)n2C)c(-c2cc(F)c3c(c2C)CCCO3)c1[C@H](OC(C)(C)C)C(=O)O [Example 327] | 9.4 nM
COC[C@H]1CCCN1c1nnc(-c2cc3c(-c4cc(F)c5c(c4C)CCCO5)c([C@H](OC(C)(C)C)C(=O)O)c(C)nc3n2C)o1 [Example 330] | 12.8 nM
Cc1nc2c(cc(-c3nnc(N4CC[C@H](N(C)C)C4)o3)n2C)c(-c2cc(F)c3c(c2C)CCCO3)c1[C@H](OC(C)(C)C)C(=O)O [Example 332] | 23.8 nM
COCC1CCCN1C1CCN(c2nnc(-c3cc4c(-c5cc(F)c6c(c5C)CCCO6)c([C@H](OC(C)(C)C)C(=O)O)c(C)nc4n3C)o2)CC1 (stereo partly shown) [Example 339] | 28.8 nM
Cc1nc2c(cc(-c3nnc(N4CCN(CCN5CCOCC5)CC4)o3)n2C)c(-c2cc(F)c3c(c2C)CCCO3)c1[C@H](OC(C)(C)C)C(=O)O [Example 340] | 43.2 nM
Cc1nc2c(cc(-c3nnc(NCCN4CCN(C)CC4)o3)n2C)c(-c2cc(F)c3c(c2C)CCCO3)c1[C@H](OC(C)(C)C)C(=O)O [Example 341] | 1250 nM
Cc1nc2c(cc(-c3nnc(N(C)CCN4CCOCC4)o3)n2C)c(-c2cc(F)c3c(c2C)CCCO3)c1[C@H](OC(C)(C)C)C(=O)O [Example 343] | 10.6 nM

Next, values leading:

IC50 | Structure (SMILES)
3.9 nM | Cc1nc2c(cc(-c3nnc(N4CCC(C)CC4)o3)n2C)c(-c2cc(F)c3c(c2C)CCCO3)c1[C@H](OC(C)(C)C)C(=O)O [Example 301]
44.2 nM | Cc1nc2c(cc(-c3nnc(N4CCCN(C5COC5)CC4)o3)n2C)c(-c2cc(F)c3c(c2C)CCCO3)c1[C@H](OC(C)(C)C)C(=O)O [Example 302]
51.8 nM | Cc1nc2c(cc(-c3nnc(N4CCCN(C)CC4)o3)n2C)c(-c2cc(F)c3c(c2C)CCCO3)c1[C@H](OC(C)(C)C)C(=O)O [Example 306]
46 nM | Cc1nc2c(cc(-c3nnc(N4CC5CN(C6COC6)CC5C4)o3)n2C)c(-c2cc(F)c3c(c2C)CCCO3)c1[C@H](OC(C)(C)C)C(=O)O (stereo partly shown) [Example 309]
15.4 nM | Cc1nc2c(cc(-c3nnc(N4CCOCC4)o3)n2C)c(-c2cc(F)c3c(c2C)CCCO3)c1[C@H](OC(C)(C)C)C(=O)O [Example 310]
4.5 nM | Cc1nc2c(cc(-c3nnc(N4CCCC4)o3)n2C)c(-c2cc(F)c3c(c2C)CCCO3)c1[C@H](OC(C)(C)C)C(=O)O [Example 311]
19.9 nM | Cc1nc2c(cc(-c3nnc(N4CCN(C)CC4)o3)n2C)c(-c2cc(F)c3c(c2C)CCCO3)c1[C@H](OC(C)(C)C)C(=O)O [Example 312]
40.6 nM | Cc1nc2c(cc(-c3nnc(N4CCN(C5COC5)CC4)o3)n2C)c(-c2cc(F)c3c(c2C)CCCO3)c1[C@H](OC(C)(C)C)C(=O)O [Example 315]
118 nM | Cc1nc2c(cc(-c3nnc(N4CCC(N5CCCCC5)CC4)o3)n2C)c(-c2cc(F)c3c(c2C)CCCO3)c1[C@H](OC(C)(C)C)C(=O)O [Example 317]
14.2 nM | Cc1nc2c(cc(-c3nnc(N4CCC(N5CCOCC5)CC4)o3)n2C)c(-c2cc(F)c3c(c2C)CCCO3)c1[C@H](OC(C)(C)C)C(=O)O [Example 318]
4.6 nM | Cc1nc2c(cc(-c3nnc(N4CCN(CC5CCOCC5)CC4)o3)n2C)c(-c2cc(F)c3c(c2C)CCCO3)c1[C@H](OC(C)(C)C)C(=O)O [Example 322]
13.6 nM | Cc1nc2c(cc(-c3nnc(N4CCC4)o3)n2C)c(-c2cc(F)c3c(c2C)CCCO3)c1[C@H](OC(C)(C)C)C(=O)O [Example 325]
3.8 nM | Cc1nc2c(cc(-c3nnc(N4CCN5CCC[C@@H]5C4)o3)n2C)c(-c2cc(F)c3c(c2C)CCCO3)c1[C@H](OC(C)(C)C)C(=O)O [Example 326]
4.2 nM | Cc1nc2c(cc(-c3nnc(N4CCN(C5CCOCC5)C[C@H]4C)o3)n2C)c(-c2cc(F)c3c(c2C)CCCO3)c1[C@H](OC(C)(C)C)C(=O)O [Example 328]
13.4 nM | Cc1nc2c(cc(-c3nnc(N4CCOC[C@@H]4C)o3)n2C)c(-c2cc(F)c3c(c2C)CCCO3)c1[C@H](OC(C)(C)C)C(=O)O [Example 329]
4.3 nM | Cc1nc2c(cc(-c3nnc(N4CC[C@@H](F)C4)o3)n2C)c(-c2cc(F)c3c(c2C)CCCO3)c1[C@H](OC(C)(C)C)C(=O)O [Example 331]
16.5 nM | Cc1nc2c(cc(-c3nnc(N4CCN5CCOC[C@@H]5C4)o3)n2C)c(-c2cc(F)c3c(c2C)CCCO3)c1[C@H](OC(C)(C)C)C(=O)O [Example 333]
10.4 nM | Cc1nc2c(cc(-c3nnc(N4CCOC[C@H]4C)o3)n2C)c(-c2cc(F)c3c(c2C)CCCO3)c1[C@H](OC(C)(C)C)C(=O)O [Example 334]
10.1 nM | Cc1nc2c(cc(-c3nnc(N4CCN(C5CCOCC5)[C@@H](C)C4)o3)n2C)c(-c2cc(F)c3c(c2C)CCCO3)c1[C@H](OC(C)(C)C)C(=O)O [Example 335]
4.5 nM | Cc1nc2c(cc(-c3nnc(N4CCN(C5CC5)CC4)o3)n2C)c(-c2cc(F)c3c(c2C)CCCO3)c1[C@H](OC(C)(C)C)C(=O)O [Example 336]
4.6 nM | Cc1nc2c(cc(-c3nnc(N4CCN(CC5CC5)CC4)o3)n2C)c(-c2cc(F)c3c(c2C)CCCO3)c1[C@H](OC(C)(C)C)C(=O)O [Example 337]
5.4 nM | Cc1nc2c(cc(-c3nnc(N4CCN(C(C)C)CC4)o3)n2C)c(-c2cc(F)c3c(c2C)CCCO3)c1[C@H](OC(C)(C)C)C(=O)O [Example 342]
130 nM | Cc1nc2c(cc(-c3nnc(N4CCC(N5CCCC5)CC4)o3)n2C)c(-c2cc(F)c3c(c2C)CCCO3)c1[C@H](OC(C)(C)C)C(=O)O [Example 344]
2.7 nM | Cc1nc2c(cc(-c3nnc(N4CCCCC4)o3)n2C)c(-c2cc(F)c3c(c2C)CCCO3)c1[C@H](OC(C)(C)C)C(=O)O [Example 345]
2.7 nM | Cc1nc2c(cc(-c3nnc(N4CCC(F)CC4)o3)n2C)c(-c2cc(F)c3c(c2C)CCCO3)c1[C@H](OC(C)(C)C)C(=O)O [Example 346]
6.3 nM | Cc1nc2c(cc(-c3nnc(N4CCN(C5CCOCC5)[C@H](C)C4)o3)n2C)c(-c2cc(F)c3c(c2C)CCCO3)c1[C@H](OC(C)(C)C)C(=O)O [Example 347]

Reference: patent publication US20150191469A1, “COMPOUNDS AND METHODS FOR TREATING HIV” (priority 2012, published 2015)
